Experimental findings from US20260183223A1, “A PERSONAL CARE COMPOSITION” (Conopco, Inc., d/b/a UNILEVER, priority 2022, published 2026) are described below.

The assay has as its system collagen type III alpha I chain (COL3A1) gene. Put plainly: Gene expression test: COL3A1 by RT-PCR in normal human dermal fibroblasts. Format: cell-based. Particulars: normal human dermal fibroblasts (NHDF), 48 hours incubation with actives in medium; normalized to ACTB; fold change relative to blank control; actives in wt % of medium. The method, then: The normal human dermal fibroblasts (NHDF, Biocell, Xi′an, China, Cat: Fb20081902) were incubated in medium together with or without actives for 48 hours. After incubation, the total RNA for each […] was extracted using RNAex Pro reagent (Accurate Biotechnology, Cat: AG21102) according to manufacturer's protocol.
The extracted RNA was quantified using Nanodrop 2000 spectrometer (Thermo Fisher Scientific, Waltham, MA, US) and reverse transcribed to generate the template cDNA using the Evo M-MLV RT Premix for qPCR (Accurate Biotechnology, Cat: AG11706) according to manufacturer's protocol. Amplification of the gene encoding collagen type III alpha I chain (COL3A1) gene was performed with RT-PCR reagent (SYBR® Green Premix Pro Taq HS qPCR Kit, Accurate Biotechnology, Cat: AG11701) on the ABI Vii 7 Real-Time PCR Systems (Applied Biosystems, Thermo fisher scientific, Carlsbad, CA, USA). The beta-actin (ACTB) gene was selected as the housekeeping gene and all data on relative expression of the target genes was normalized to ACTB gene. The fold changes in expression were calculated relative to the blank control (medium having no active).

As to Lysine carboxymethyl cysteinate, the “Fold change of expression of COL3A1” value worked out at 1.1.
